# What was measured:
# [1] = test system: distal promoter of the human β-globin gene (−222/−128); test: Gel mobility shift assay with distal promoter restriction fragment; type: binding; settings: gel retardation assay, FIG. 2a left side
# Description: Proteins and antibodies. Ferritins from human liver (enriched in L chains) and from human heart (enriched in H chains), human transferrin (iron saturated) and apotransferrin, polyclonal (rabbit) antiserum to human spleen ferritin and nonimmune rabbit serum were obtained from Sigma Chemical Company.
# Restriction fragments and oligonucleotides. The 5′ region of the human β-globin gene (from −610 to +20), previously cloned in pSV2CAT, was cut into three fragments by sequential digestions with Hind III and Rsa I. The three fragments, electroeluted from agarose (Maniatis, T., Fritsch, E. F. & Sambrook, J. (1989) Molecular Cloning: A Laboratory Manual (Cold Spring Harbor Laboratory, Cold Spring Harbor, N.Y.), were 416 bp (−638/−223), 147 bp (−127/+20, containing the proximal promoter region), and 95 bp (the Rsa fragment, −222/−128, containing mainly distal promoter sequences). The three fragments were phenol/chloroform treated, dephosphorylated, and end-labelled with 32-P as described (Maniatis, T., Fritsch, E. F. & Sambrook, J. (1989) Molecular Cloning: A Laboratory Manual (Cold Spring Harbor Laboratory, Cold Spring Harbor, N.Y.); Kurien, B. T., Scofield, R. H., & Broyles, R. H. (1997) Anal Biochem 245, 123-126). […]
# [2] = test system: partially purified ferritin-protein from K562 nuclei; test: Competition gel-shift assay with labeled wt −164/−128 oligonucleotide; type: binding, human; settings: for excess of unlabeled oligonucleotide needed for significant competition with labeled wt sequence: heated K562 nuclear extract protein, FIG. 4B/4C
# Procedure: Preparation of nuclear extracts. Each nuclear extract preparation was made from two liters of K562 cells (1×10^6 cells/ml) using the procedure of Dignam, Lebovitz, and Roeder (Dignam, J. D., Lebovitz, R. M. & Roeder, R. G. (1983) Nucleic Acids Res 11, 1475-89). Protein content of the extracts ranged from 3 to 6 mg/ml. Extracts enriched 80-90% in ferritin-like protein(s) were prepared by treating the crude extracts with proteinase K and/or heat at 75° C. (Atkinson, B. G., Dean, R. L., Tomlinson, J. & Blaker, T. W. (1989) Biochem Cell Biol 67, 52-7).
# Gel mobility shift assays. Gel retardation assays (i.e., gel shifts) were used to determine DNA binding of the extract proteins to the Rsa I (95 bp) fragment and synthetic oligonucleotides (Berg et al., (1989) Nucleic Acids Res 17, 8833-52; Fried & Crothers (1981) Nucleic Acids Res 9, 6505-25). Each reaction contained 0.5-2 ng of DNA, 1.0-5.0 ug of extract protein, 1.0-5.0 ug of poly dI:poly dC, 100 mM KCl, and binding buffer (Berg et al., (1989) Nucleic Acids Res 17, 8833-52). Unlabeled competitor oligonucleotides ranged from 15- to 2000-fold molar excess and were included in the reaction mixture with the probe before adding protein. Gels used for retardation assays were 4%, 5%, or 6% acrylamide and the running buffer was low ionic strength TAE (Berg et al., (1989) Nucleic Acids Res 17, 8833-52).
# Definition of the binding site with competition gel shifts. To further localize the binding of ferritin, the 37 bp oligonucleotide was mutated in different places, replacing six nucleotides at a time with all A's, all C's, or all G's, with complementary nucleotide replacements in the opposing strand (FIG. 4A). A competition gel shift assay was done with the partially purified protein from heated K562 nuclear extract, in which each of the unlabeled mutant oligos as well as the native sequence was competed against the 32-P-labeled native sequence for binding. All mutants competed for binding as well as the native sequence except those mutated in the −153/−148 region, i.e., mutated in the sequence CAGTGC [SEQ ID NO: 6] (e.g., FIG. 4D). […]
# acute sickle-cell crises = settings: stated by The University of Maryland; cited from earlier work
# [3] = test system: endogenous ferritin-H gene expression in NT-2 (NTERA-2) stem cells; test: Western blot for ferritin-H in NT-2 cells; type: cell-based, human; settings: Western blot after 8 days in the presence of compound vs DMSO-control, FIG. 21
# Procedure: Cell lines. Human NTERA-2 (NT-2) embryonal carcinoma stem cells (ATCC # CRL-1973) were cultured in DMEM medium with 10% FBS and antibiotics.
# Western blots and quantification. Cell lysates (i.e., extracts of human NT-2 cells) were boiled for 3-5 minutes in SDS buffer, layered onto polyacrylamide gels and were run with SDS electrophoresis buffer at 90 volts for 30 minutes. Electrophoresed samples were then placed in 3% BSA buffer and transferred at 80 volts for 2 hours to blotting membranes. A blocking reaction was performed over night with blocking buffer from ECL advance kit (GE Healthcare Bio-Sciences, NJ), followed by incubation for 4 hours in BSA buffer with fluorescent secondary antibody (1:10000) and primary anti ferritin-H (anti-FtH) polyclonal antiserum (1:1000). Ferritin-H detection was achieved using the LI-COR apparatus to visualize the fuorescent bands and Odyssey software to quantify the stained bands of ferritin-H. Isolation and culture of human mononuclear cells and maturation of erythroid precursor cells are diagrammed in FIG. 22. Whole blood was obtained from pediatric sickle cell patients at the time of scheduled transfusion therapy under an approved IRB protocol. […]
# [4] = test system: erythroid precursor cells from pediatric sickle cell disease patients; test: HbS-to-HbF switching in two-phase culture, HPLC of hemoglobins and immuno-HbF fluorescence; type: cell-based, human; settings: FIG. 23
compound,measurement,setting,value
"transferrin: human transferrin, another iron-binding protein, Sigma",binding to −222/−128 distal promoter fragment,[1],did not bind
"wt: double-stranded wildtype −164/−128 β-globin promoter oligonucleotide, SEQ ID NO: 1 (AACTCCTAAGCCAGTGCCAGAAGAGCCAAGGACAGGT; complementary strand not cited, chemistry not fully specified; listed as Homo sapiens)",excess of unlabeled oligonucleotide needed for significant competition with labeled wt sequence,[2],50 fold excess
NC(=O)NO [Hydroxyurea],patients on whom the agent has no effect,acute sickle-cell crises,25%
"mutant no. 4: double-stranded −164/−128 oligonucleotide mutated in the −153/−148 CAGTGC sequence, SEQ ID NO: 5 (AACTCCTAAGCAAAAAACAGAAGAGCCAAGGACAGGT; double-stranded competitor oligonucleotide, further chemistry not given here)","concentration required for 50% inhibition of binding of labeled probe, relative to wt sequence",[2]; FIG. 4D,20 fold
same,excess of unlabeled oligonucleotide needed for significant competition with labeled wt sequence,[2],"1,000 fold excess"
CC1=CC(=O)CC(C)(C)C1(O)/C=C/C(C)=C\C(=O)O (centres unmarked) [abscissic acid],ferritin-H expression in NT-2 cells,[3],activated ferritin-H expression
same,HbS-to-HbF hemoglobin switch,"[4]; administered day 1 of phase II culture with rhEpo, HPLC, observed 23 days to 4 weeks after administration",total switch
same,cellular distribution of HbF production,[4]; immuno-HbF fluorescence,pancellular
